We go through three compounds from ChEMBL document CHEMBL5303573, “Mapping human microbiome drug metabolism by gut bacteria and their genes” (Nature, 2019).

A short description of one data set: The drug is tested on Clostridium scindens strain: ATCC35704 for biotransformation. The drug concentrations were measured before and after a 12-h incubation by liquid-chromatography-coupled mass spectrometry (LC–MS). The settings on record: 2 µM.
Consider `CC(=O)CC(c1ccccc1)c1c(O)c2ccccc2oc1=O` (stereo not drawn) [WARFARIN], for which the “Bacterial Biotransformation” value is “Compound NOT metabolized”.
The same measure, in the same setting: the entry for `O=C(NCc1ccccc1)OCCO` [BURAMATE] is “Compound NOT metabolized”.
Still for that read-out and setting: for `CS(=O)(=O)O.OC(CCN1CCCCC1)(c1ccccc1)c1ccccc1` [PRIDINOL METHANESULFONATE] the value was “Compound NOT metabolized”.

The conditions of the next data set: bacteroides thetaiotaomicron, 12 h, 2 µM.
Description: The drug is tested on Bacteroides thetaiotaomicron strain: VPI-5482 for biotransformation. The drug concentrations were measured before and after a 12-h incubation by liquid-chromatography-coupled mass spectrometry (LC–MS)
Turning to `CC(=O)CC(c1ccccc1)c1c(O)c2ccccc2oc1=O` (stereo not drawn) [WARFARIN], the “Bacterial Biotransformation” value was “Compound NOT metabolized”.
With `O=C(NCc1ccccc1)OCCO` [BURAMATE], the “Bacterial Biotransformation” value is reported as “Compound NOT metabolized”.
Same read-out and setting: the entry for `CS(=O)(=O)O.OC(CCN1CCCCC1)(c1ccccc1)c1ccccc1` [PRIDINOL METHANESULFONATE] is “Compound NOT metabolized”.

A short description of another data set: The drug is tested on Bacteroides cellulosilyticus strain: DSM14838 for biotransformation. The drug concentrations were measured before and after a 12-h incubation by liquid-chromatography-coupled mass spectrometry (LC–MS). The settings on record: 2 µM.
Take `CS(=O)(=O)O.OC(CCN1CCCCC1)(c1ccccc1)c1ccccc1` [PRIDINOL METHANESULFONATE]: the “Bacterial Biotransformation” value is on record as “Compound NOT metabolized”.

A short description of a further data set: The drug is tested on Eubacterium rectale strain: ATCC33656 for biotransformation. The drug concentrations were measured before and after a 12-h incubation by liquid-chromatography-coupled mass spectrometry (LC–MS). As to conditions: agathobacter rectalis, 2 µM.
With `CC(=O)CC(c1ccccc1)c1c(O)c2ccccc2oc1=O` (stereo not drawn) [WARFARIN], the “Bacterial Biotransformation” value is “Compound NOT metabolized”.
For the compound `O=C(NCc1ccccc1)OCCO` [BURAMATE], the “Bacterial Biotransformation” value was “Compound NOT metabolized”.
As for `CS(=O)(=O)O.OC(CCN1CCCCC1)(c1ccccc1)c1ccccc1` [PRIDINOL METHANESULFONATE], the “Bacterial Biotransformation” value is “Compound NOT metabolized”.

Another data set is described as follows: The drug is tested on Bacteroides ovatus strain: ATCC8483 for biotransformation. The drug concentrations were measured before and after a 12-h incubation by liquid-chromatography-coupled mass spectrometry (LC–MS). As to conditions: 2 µM.
As to `CC(=O)CC(c1ccccc1)c1c(O)c2ccccc2oc1=O` (stereo not drawn) [WARFARIN], the “Bacterial Biotransformation” value was “Compound NOT metabolized”.
In the case of `O=C(NCc1ccccc1)OCCO` [BURAMATE], the “Bacterial Biotransformation” value is recorded as “Compound NOT metabolized”.
Turning to `CS(=O)(=O)O.OC(CCN1CCCCC1)(c1ccccc1)c1ccccc1` [PRIDINOL METHANESULFONATE], the “Bacterial Biotransformation” value was “Compound NOT metabolized”.

The conditions of another data set: parabacteroides distasonis, 12 h, 2 µM.
Description: The drug is tested on Parabacteroides distasonis strain: ATCC8503 for biotransformation. The drug concentrations were measured before and after a 12-h incubation by liquid-chromatography-coupled mass spectrometry (LC–MS)
`CC(=O)CC(c1ccccc1)c1c(O)c2ccccc2oc1=O` (stereo not drawn) [WARFARIN]: the “Bacterial Biotransformation” value was “Compound NOT metabolized”.
On to `O=C(NCc1ccccc1)OCCO` [BURAMATE], for which the “Bacterial Biotransformation” value is recorded as “Compound NOT metabolized”.

Another data set in a line: The drug is tested on Clostridium sp. strain: fecal isolate for biotransformation. The drug concentrations were measured before and after a 12-h incubation by liquid-chromatography-coupled mass spectrometry (LC–MS). The settings on record: 2 µM.
As to `CC(=O)CC(c1ccccc1)c1c(O)c2ccccc2oc1=O` (stereo not drawn) [WARFARIN], the “Bacterial Biotransformation” value was “Compound NOT metabolized”.
Same read-out and setting: for `O=C(NCc1ccccc1)OCCO` [BURAMATE] the value was “Compound NOT metabolized”.

Another data set can be described thus: The drug is tested on Enterobacter cancerogenus strain: ATCC35316 for biotransformation. The drug concentrations were measured before and after a 12-h incubation by liquid-chromatography-coupled mass spectrometry (LC–MS). As to conditions: 2 µM.
In the case of `CC(=O)CC(c1ccccc1)c1c(O)c2ccccc2oc1=O` (stereo not drawn) [WARFARIN], the “Bacterial Biotransformation” value is reported as “Compound NOT metabolized”.
On the same count and under the same terms, the entry for `O=C(NCc1ccccc1)OCCO` [BURAMATE] is “Compound NOT metabolized”.

A short description of a further data set: The drug is tested on Bifidobacterium breve strain: DSM20213 for biotransformation. The drug concentrations were measured before and after a 12-h incubation by liquid-chromatography-coupled mass spectrometry (LC–MS). As to conditions: 2 µM.
On to `CC(=O)CC(c1ccccc1)c1c(O)c2ccccc2oc1=O` (stereo not drawn) [WARFARIN], for which the “Bacterial Biotransformation” value is listed as “Compound NOT metabolized”.
On the same count and under the same terms, for `CS(=O)(=O)O.OC(CCN1CCCCC1)(c1ccccc1)c1ccccc1` [PRIDINOL METHANESULFONATE] the value was “Compound NOT metabolized”.

For the next data set the following is noted: bacteroides thetaiotaomicron, 12 h, 2 µM. This is another data set of the same source.
Description: The drug is tested on Bacteroides thetaiotaomicron strain: 3731 for biotransformation. The drug concentrations were measured before and after a 12-h incubation by liquid-chromatography-coupled mass spectrometry (LC–MS)
As for `CC(=O)CC(c1ccccc1)c1c(O)c2ccccc2oc1=O` (stereo not drawn) [WARFARIN], the “Bacterial Biotransformation” value is “Compound NOT metabolized”.
For `O=C(NCc1ccccc1)OCCO` [BURAMATE], the “Bacterial Biotransformation” value was “Compound NOT metabolized”.
As to `CS(=O)(=O)O.OC(CCN1CCCCC1)(c1ccccc1)c1ccccc1` [PRIDINOL METHANESULFONATE], the “Bacterial Biotransformation” value is recorded as “Compound NOT metabolized”.

The conditions of another data set: bacteroides fragilis, 12 h, 2 µM.
Description: The drug is tested on Bacteroides fragilis strain: DS-208 for biotransformation. The drug concentrations were measured before and after a 12-h incubation by liquid-chromatography-coupled mass spectrometry (LC–MS)
Consider `CC(=O)CC(c1ccccc1)c1c(O)c2ccccc2oc1=O` (stereo not drawn) [WARFARIN], for which the “Bacterial Biotransformation” value is on record as “Compound NOT metabolized”.
On the same count and under the same terms, the entry for `O=C(NCc1ccccc1)OCCO` [BURAMATE] is “Compound NOT metabolized”; for `CS(=O)(=O)O.OC(CCN1CCCCC1)(c1ccccc1)c1ccccc1` [PRIDINOL METHANESULFONATE] it is “Compound NOT metabolized”.

Another data set can be described thus: The drug is tested on Blautia luti strain: DSM14534 for biotransformation. The drug concentrations were measured before and after a 12-h incubation by liquid-chromatography-coupled mass spectrometry (LC–MS). It is filed as ADME. Also noted: dose 2 uM, timepoint 0 vs 12 hours. As to conditions: 2 µM.
`CC(=O)CC(c1ccccc1)c1c(O)c2ccccc2oc1=O` (stereo not drawn) [WARFARIN]: the “Bacterial Biotransformation” value is on record as “Compound NOT metabolized”.
Still for that read-out and setting: for `O=C(NCc1ccccc1)OCCO` [BURAMATE] the value was “Compound NOT metabolized”.
Still for that read-out and setting: for `CS(=O)(=O)O.OC(CCN1CCCCC1)(c1ccccc1)c1ccccc1` [PRIDINOL METHANESULFONATE] the value was “Compound NOT metabolized”.

The next data set can be described thus: The drug is tested on Bacteroides fragilis strain: ATCC43859 for biotransformation. The drug concentrations were measured before and after a 12-h incubation by liquid-chromatography-coupled mass spectrometry (LC–MS). As to conditions: 2 µM.
For `CC(=O)CC(c1ccccc1)c1c(O)c2ccccc2oc1=O` (stereo not drawn) [WARFARIN], the “Bacterial Biotransformation” value is “Compound metabolized”.
The same measure, in the same setting: the entry for `O=C(NCc1ccccc1)OCCO` [BURAMATE] is “Compound NOT metabolized”.

The next data set in a line: The drug is tested on Subdoligranulum variabile strain: DSM15176 for biotransformation. The drug concentrations were measured before and after a 12-h incubation by liquid-chromatography-coupled mass spectrometry (LC–MS). As to conditions: 2 µM.
Regarding `CC(=O)CC(c1ccccc1)c1c(O)c2ccccc2oc1=O` (stereo not drawn) [WARFARIN], the “Bacterial Biotransformation” value is “Compound NOT metabolized”.
Same read-out and setting: the entry for `O=C(NCc1ccccc1)OCCO` [BURAMATE] is “Compound NOT metabolized”; for `CS(=O)(=O)O.OC(CCN1CCCCC1)(c1ccccc1)c1ccccc1` [PRIDINOL METHANESULFONATE] it is “Compound NOT metabolized”.

A short description of a further data set: The drug is tested on Escherichia coli strain: BW25113 for biotransformation. The drug concentrations were measured before and after a 12-h incubation by liquid-chromatography-coupled mass spectrometry (LC–MS). As to conditions: 2 µM.
In the case of `CC(=O)CC(c1ccccc1)c1c(O)c2ccccc2oc1=O` (stereo not drawn) [WARFARIN], the “Bacterial Biotransformation” value is “Compound NOT metabolized”.
For `O=C(NCc1ccccc1)OCCO` [BURAMATE], the “Bacterial Biotransformation” value is listed as “Compound NOT metabolized”.
The same measure, in the same setting: for `CS(=O)(=O)O.OC(CCN1CCCCC1)(c1ccccc1)c1ccccc1` [PRIDINOL METHANESULFONATE] the value was “Compound NOT metabolized”.

A further data set can be described thus: The drug is tested on Eubacterium hallii strain: DSM3353 for biotransformation. The drug concentrations were measured before and after a 12-h incubation by liquid-chromatography-coupled mass spectrometry (LC–MS). The settings on record: anaerobutyricum hallii, 2 µM.
With `CC(=O)CC(c1ccccc1)c1c(O)c2ccccc2oc1=O` (stereo not drawn) [WARFARIN], the “Bacterial Biotransformation” value is given as “Compound NOT metabolized”.
Still for that read-out and setting: for `O=C(NCc1ccccc1)OCCO` [BURAMATE] the value was “Compound NOT metabolized”; for `CS(=O)(=O)O.OC(CCN1CCCCC1)(c1ccccc1)c1ccccc1` [PRIDINOL METHANESULFONATE], “Compound NOT metabolized”.

A further data set is described as follows: The drug is tested on Clostridium symbiosum strain: ATCC14940 for biotransformation. The drug concentrations were measured before and after a 12-h incubation by liquid-chromatography-coupled mass spectrometry (LC–MS). The settings on record: 2 µM.
Take `CC(=O)CC(c1ccccc1)c1c(O)c2ccccc2oc1=O` (stereo not drawn) [WARFARIN]: the “Bacterial Biotransformation” value is listed as “Compound NOT metabolized”.
On the same count and under the same terms, the entry for `O=C(NCc1ccccc1)OCCO` [BURAMATE] is “Compound NOT metabolized”; for `CS(=O)(=O)O.OC(CCN1CCCCC1)(c1ccccc1)c1ccccc1` [PRIDINOL METHANESULFONATE] it is “Compound NOT metabolized”.

The next data set in a line: The drug is tested on Bacteroides finegoldii strain: DSM17565 for biotransformation. The drug concentrations were measured before and after a 12-h incubation by liquid-chromatography-coupled mass spectrometry (LC–MS). The settings on record: 2 µM.
For `CC(=O)CC(c1ccccc1)c1c(O)c2ccccc2oc1=O` (stereo not drawn) [WARFARIN], the “Bacterial Biotransformation” value is “Compound NOT metabolized”.
Same read-out and setting: for `O=C(NCc1ccccc1)OCCO` [BURAMATE] the value was “Compound NOT metabolized”; for `CS(=O)(=O)O.OC(CCN1CCCCC1)(c1ccccc1)c1ccccc1` [PRIDINOL METHANESULFONATE], “Compound NOT metabolized”.

The conditions of another data set: bacteroides fragilis, 12 h, 2 µM. This is another data set of the same source.
Description: The drug is tested on Bacteroides fragilis strain: NCTC 9343 for biotransformation. The drug concentrations were measured before and after a 12-h incubation by liquid-chromatography-coupled mass spectrometry (LC–MS)
Consider `CC(=O)CC(c1ccccc1)c1c(O)c2ccccc2oc1=O` (stereo not drawn) [WARFARIN], for which the “Bacterial Biotransformation” value is given as “Compound NOT metabolized”.
On the same count and under the same terms, for `O=C(NCc1ccccc1)OCCO` [BURAMATE] the value was “Compound NOT metabolized”; for `CS(=O)(=O)O.OC(CCN1CCCCC1)(c1ccccc1)c1ccccc1` [PRIDINOL METHANESULFONATE], “Compound NOT metabolized”.

Another data set can be described thus: The drug is tested on Bacteroides caccae strain: ATCC43185 for biotransformation. The drug concentrations were measured before and after a 12-h incubation by liquid-chromatography-coupled mass spectrometry (LC–MS). The settings on record: 2 µM.
Regarding `CC(=O)CC(c1ccccc1)c1c(O)c2ccccc2oc1=O` (stereo not drawn) [WARFARIN], the “Bacterial Biotransformation” value is “Compound NOT metabolized”.
On the same count and under the same terms, the entry for `O=C(NCc1ccccc1)OCCO` [BURAMATE] is “Compound NOT metabolized”; for `CS(=O)(=O)O.OC(CCN1CCCCC1)(c1ccccc1)c1ccccc1` [PRIDINOL METHANESULFONATE] it is “Compound NOT metabolized”.
